This note sets out measurements from PubChem BioAssay (NCI).

Some test systems named below: CAKI-1 renal; HCT-116 colon; LOX IMVI melanoma; NCI-H23 lung; SK-MEL-5 melanoma; SNB-75 CNS; T-47D breast; TK-10 renal; UACC-257 melanoma; UO-31 renal.
Common to all, as to assay: NCI tumour cell line growth inhibition, 48 h

Each structure is given as a SMILES string. Where “and” joins values, the source holds several entries; their conditions need not be identical. Equal values may be shown once.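 Method: 48-hour compound exposure of cells in 96-well plates, five concentrations, linear interpolation of endpoints. GI50 = concentration required for 50% inhibition of growth. TGI marks complete inhibition of growth.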

As to `O=C(O)CC1C(=O)OC2C3COC(=O)c4cc(O)c(O)c(O)c4-c4c(cc(O)c(O)c4O)C(=O)OC2C(OC(=O)c2cc(O)c(O)c4c2C1C(O)C(=O)O4)C(OC(=O)c1cc(O)c(O)c(O)c1)O3` (stereo not given), the TGI with CAKI-1 renal was 42.9 µM; with HCT-116 colon it was 27.8 µM; in the test on LOX IMVI melanoma it was 31.5 µM; in the test on NCI-H23 lung, over 100 µM; in the test with SK-MEL-5 melanoma, over 100 µM; with SNB-75 CNS it was 41.5 µM. Further, the TGI in the test with T-47D breast, with TK-10 renal, with UACC-257 melanoma and in the test on UO-31 renal was over 100 µM in each case.

For the molecule `O=S1CCN(Cc2ccc(-c3ccc4ncnc(Nc5ccc(OCc6ccccc6)c(F)c5)c4c3)o2)CC1`, the GI50 in the test on CAKI-1 renal was 0.394 µM; in the test with HCT-116 colon it was 9.96 µM; in the test on LOX IMVI melanoma it was 6.39 µM; in the test on NCI-H23 lung, 11.3 µM; in the test with SK-MEL-5 melanoma, 3.44 µM; with SNB-75 CNS, over 13.1 µM. The GI50 in the test with T-47D breast was 3.22 µM; in the test on TK-10 renal, 0.232 µM; with UACC-257 melanoma, 6.66 µM; in the test with UO-31 renal, 4.85 µM. For the same molecule, the TGI with CAKI-1 renal was over 25 µM; in the test with HCT-116 colon, over 25 µM; with LOX IMVI melanoma it was over 23.4 µM; with NCI-H23 lung it was over 25 µM; in the test on SK-MEL-5 melanoma it was 7 µM; in the test with SNB-75 CNS, over 25 µM. The TGI in the test with T-47D breast was over 19.2 µM; with TK-10 renal, over 25 µM; with UACC-257 melanoma, over 25 µM; in the test on UO-31 renal it was over 25 µM.

For `O=C1NC(=O)C(N2CCc3ccccc32)=C1c1ccc(Cl)cc1`, the GI50 was over 25 µM in the test on CAKI-1 renal; over 10.2 µM in the test on HCT-116 colon; over 25 µM with LOX IMVI melanoma; over 11.4 µM in the test with NCI-H23 lung; over 23.2 µM with SK-MEL-5 melanoma; over 25 µM in the test with SNB-75 CNS. The GI50 with T-47D breast is over 25 µM; in the test with TK-10 renal, over 25 µM; with UACC-257 melanoma, over 25 µM; with UO-31 renal, over 17.3 µM. Moreover, the TGI in the test with CAKI-1 renal was over 25 µM; in the test with HCT-116 colon it was over 16.6 µM; in the test with LOX IMVI melanoma, over 25 µM; with NCI-H23 lung it was over 25 µM; in the test with SK-MEL-5 melanoma, over 25 µM; with SNB-75 CNS it was over 25 µM. Also, the TGI in the test on T-47D breast, in the test with TK-10 renal, with UACC-257 melanoma and with UO-31 renal was over 25 µM each time.

In the case of `O=C1c2ccccc2C(=O)c2c(NCCNCCO)ccc(NCCNCCO)c21`, the GI50 was 2.31 µM and 2.42 µM and 4.94 µM in the test with CAKI-1 renal; 0.715 µM and 0.908 µM and 0.934 µM in the test with HCT-116 colon; 0.426 µM and 0.941 µM and 0.545 µM in the test on LOX IMVI melanoma; 0.94 µM and 1.43 µM and 1.22 µM in the test with NCI-H23 lung; 1.41 µM and 1.13 µM and 1.09 µM in the test on SK-MEL-5 melanoma; 0.649 µM and 0.473 µM and 0.386 µM with SNB-75 CNS. Moreover, the GI50 is 1.14 µM and 1.67 µM and 1.25 µM with T-47D breast; 2.89 µM and 2.55 µM and 1.33 µM in the test with TK-10 renal; 4.72 µM and 6.86 µM and 6.63 µM in the test on UACC-257 melanoma; 5.36 µM and 1.58 µM and 2.79 µM with UO-31 renal. The TGI in the test with CAKI-1 renal is 45.2 µM and > 45.9 µM and > 100 µM; in the test with HCT-116 colon it was 6.79 µM and 6.81 µM and 11.2 µM; in the test on LOX IMVI melanoma, 4.19 µM and 6.13 µM and 6.12 µM; with NCI-H23 lung, 4.54 µM and 8.5 µM and 5.81 µM; with SK-MEL-5 melanoma, 3.34 µM and 2.87 µM and 2.86 µM; in the test with SNB-75 CNS, 3.43 µM and 2.52 µM and 2.46 µM. In addition, the TGI is 7.09 µM and 7.05 µM and 5.97 µM in the test on T-47D breast; 24.6 µM and 22.5 µM and 8.88 µM in the test with TK-10 renal; 14.2 µM and 27.9 µM and 24.7 µM in the test with UACC-257 melanoma; 38.1 µM and 27.7 µM and 36.9 µM in the test with UO-31 renal.

Take `CCOC(=O)c1c(C(F)(F)F)n([O-])c2ccc(Cl)cc2[n+]1=O`: the GI50 in the test on CAKI-1 renal was 1.35 µM; in the test on HCT-116 colon it was 1.86 µM; with LOX IMVI melanoma it was 1.57 µM; in the test with NCI-H23 lung, 1.71 µM; in the test on SK-MEL-5 melanoma it was 1.51 µM; in the test on SNB-75 CNS, 1.43 µM. Further, the GI50 with T-47D breast was 2.03 µM; in the test on TK-10 renal, 1.6 µM; with UACC-257 melanoma, 2.19 µM; in the test with UO-31 renal it was 1.48 µM. For the same molecule, the TGI came out at 2.87 µM in the test on CAKI-1 renal; 3.43 µM in the test on HCT-116 colon; 3.08 µM in the test on LOX IMVI melanoma; 3.43 µM in the test on NCI-H23 lung; 2.96 µM with SK-MEL-5 melanoma; 5.36 µM in the test with SNB-75 CNS. The TGI came out at 4.38 µM with T-47D breast, 3.23 µM in the test with TK-10 renal, 4.7 µM with UACC-257 melanoma and 2.93 µM with UO-31 renal.

As to `Cc1cc(NS(=O)(=O)c2ccc(NC(=O)COc3ccc(-c4cc5ccccc5[nH]4)cc3)cc2)no1`, the GI50 was 2.57 µM in the test with CAKI-1 renal; 1.84 µM in the test with HCT-116 colon; 1.86 µM with LOX IMVI melanoma; 1.91 µM in the test with NCI-H23 lung; 2.34 µM in the test on SK-MEL-5 melanoma; 1.5 µM with SNB-75 CNS. In addition, the GI50 is 2.75 µM with T-47D breast, 2.04 µM in the test with TK-10 renal, 2.07 µM in the test with UACC-257 melanoma and 1.41 µM in the test with UO-31 renal. In addition, the TGI came out at 9.28 µM in the test on CAKI-1 renal; 5.01 µM with HCT-116 colon; 5.18 µM in the test with LOX IMVI melanoma; 5 µM in the test with NCI-H23 lung; 6.84 µM in the test with SK-MEL-5 melanoma; 4.68 µM with SNB-75 CNS. Further, the TGI with T-47D breast was 8.56 µM; in the test with TK-10 renal, 5.45 µM; with UACC-257 melanoma, 6.27 µM; in the test on UO-31 renal, 3.76 µM.

As for `Cc1cc2oc(=O)c(Cl)c(Cl)c2c(C)c1Cl`, the TGI in the test on CAKI-1 renal turned out to be 15.7 µM; in the test with HCT-116 colon, 14 µM; in the test with LOX IMVI melanoma, 8.84 µM; in the test on NCI-H23 lung it was 39.7 µM; in the test with SK-MEL-5 melanoma, 19.2 µM; in the test on SNB-75 CNS, 25.2 µM. For the same molecule, the TGI stood at 40.2 µM in the test on T-47D breast, 28.3 µM in the test on TK-10 renal, 30 µM in the test with UACC-257 melanoma and 25.3 µM in the test with UO-31 renal.

In the case of `O=C(O)CN(CC(=O)O)c1ccccc1`, the TGI in the test with CAKI-1 renal, with HCT-116 colon, in the test with LOX IMVI melanoma, with NCI-H23 lung, in the test on SK-MEL-5 melanoma and in the test with SNB-75 CNS was over 100 µM in each case. The TGI in the test with T-47D breast, in the test with TK-10 renal, in the test with UACC-257 melanoma and with UO-31 renal was over 100 µM throughout.

As to `Cc1ccc(-c2c3c(N)nc(-c4ccncc4)nc3nc3c2c(C)nn3-c2ccccc2)cc1`, the GI50 with CAKI-1 renal is over 37.5 µM; with HCT-116 colon, 2.95 µM; with LOX IMVI melanoma, 2.33 µM; in the test on NCI-H23 lung, 21.6 µM; in the test on SK-MEL-5 melanoma, 10.2 µM; in the test on SNB-75 CNS it was 1.64 µM. The GI50 is 1.84 µM in the test with T-47D breast, 9.5 µM with TK-10 renal, 13.3 µM in the test with UACC-257 melanoma and over 37.5 µM in the test with UO-31 renal. In addition, the TGI was over 37.5 µM with CAKI-1 renal; 11.1 µM in the test with HCT-116 colon; 14.5 µM with LOX IMVI melanoma; over 37.5 µM in the test on NCI-H23 lung; over 37.5 µM in the test on SK-MEL-5 melanoma; 15.2 µM in the test on SNB-75 CNS. The TGI with T-47D breast was over 37.5 µM; in the test with TK-10 renal it was 25.6 µM; in the test on UACC-257 melanoma, over 37.5 µM; in the test on UO-31 renal, over 37.5 µM.
